In patent US11890349B2, “Treatment of inflammatory diseases with inhibitors of C5A activity” (InflaRx GmbH, priority 2017, dated 2024):

Columns and labels:
[1] = tested on: CD11b upregulation on the surface of neutrophils; experiment: Human CD11b potency assay (flow cytometric assay) with HS patient plasma or rhC5a-spiked human plasma; type: cell-based
Source text: Accumulation of neutrophils at the site of inflammation is dependent on the expression of adhesion molecules, including CD11b (also known as integrin alpha M) (Larson and Springer, 1990; Carlos and Harlan, 1990). Upregulation and mobilizing of CD11b/CD18 from intracellular pools to the surface of neutrophils is essential for the rolling action and migration of human neutrophils (Smith et al., 1989). Enhanced expression of CD11b/CD18 therefore reflects an inflammatory triggering event. The human CD11b assay is conducted using flow cytometry to detect FITC-conjugated anti-CD11b antibody on the surface of neutrophils. Activated complement products, especially elevated endogenous C5a (eC5a) in HS patient plasma samples can strongly upregulate CD11b expression through the binding of C5a to its receptor C5aR (CD88) on neutrophils. Consequently, blockade of the C5a-C5aR axis is expected to abolish or attenuate CD11b upregulation on the surface of neutrophils.
Two patient plasma samples Pat. 088 and Pat. 092 (5 μL) were incubated with fresh human blood (60 μL, as source of neutrophils) in the absence or presence of C5a-C5aR axis blockers (anti-C5a antibody IFX-1, anti-C5aR antibodies clone S5/1 and clone 7H110, C5aR antagonist PMX-53, and C5aR inhibitor Avacopan; 10 μL) in a total volume of 100 μL. Two control plasma samples (Ctrl 009 and Ctrl 010, 5 μL) prepared according to the procedure applied to the patient samples served as controls for unspecific activation. Blood with only saline (40 μL) or normal human plasma pool (huPP 5 μL+saline 35 μL) served as the non-stimulated control to define the baseline expression of CD11b. Blood sample with normal human plasma pool and spiked with recombinant human C5a (rhC5a) mimicked the stimulated condition. All samples were incubated at 37° C. for 20 min to activate CD11b upregulation. After cooling on ice, 2 μL of FITC-conjugated anti-mouse CD11b antibody was added to the samples. The labeled samples were kept on ice in the dark for another 30-min to minimize the background signal. Red blood cells were then lysed with 1×FACS Lysing solution at room temperature for 10 min. 2 mL Staining buffer was used to wash the remaining cells twice. After centrifugation at 2500 rpm for 3 min, cells were resuspended in 0.5 mL Staining buffer and ready for FACS analysis. A gate was set on the FSC vs. SSC plot to allow analysis only of cells with the size of neutrophils.
The percentage of blocking activity (BA) of the C5a-C5aR axis blockade test material was calculated using the formula below. Where MFI is the mean fluorescence intensity emitted from the CD11b-bound FITC on neutrophils. BA (%)=(MFIPatient plasma−MFITest material spiked patient plasma)÷(MFIPatient plasma−MFIhuPP)×100 b) Statistical Analysis

[2] = tested on: zymosan-induced generation of IL-8 in human whole blood; experiment: Cytokine IL-8 ELISA after zymosan A stimulation of human whole blood; type: cell-based; conditions: various concentrations of zymosan A, FIG. 4
Procedure: Human IL-8 ELISA was performed as recommended in the instruction manual under section “Assay procedure” (eBioscience Inc., San Diego, CA). Briefly, coating was performed overnight at 4° C. using 100 μl 1× capture antibody. Plates were blocked using 200 μl 1× assay diluents at RT for 1 h. Standard stock solutions were diluted with 1× assay diluents to the desired concentration, followed by 6 serial 1:2 dilutions. Sample supernatants were diluted as required in 1× assay diluents. According to the “Assay procedure”, 100 μl of standard dilutions and sample dilutions were added to the coated plate and incubated at RT for 1 h, followed by the incubation with 100 μl 1× detection antibody (RT, 1 h) and 100 μl 1× avidin-HRP (RT, 30 min). Color development was performed with 100 μl TMB substrate solution at RT for 10 min in the dark and was terminated with 100 μl stop solution. Absorbance was read out within 30 min using the plate reader at 450 nm. Zero standard value (blank) was subtracted from all standards and samples. Cytokine concentration of samples was calculated using a log(x)/log(y) standard curve of included standard samples.
In the same experimental set-up, IL-8 levels were measured and used to assess the inflammatory response. IL-8 concentrations after various doses of zymosan A stimulation ranged from 458 pg/ml to 3218 pg/ml in the absence of IFX-1. […]

[3] = tested on: human; conditions: in vivo
[4] = tested on: patients with moderate to severe hidradenitis suppurativa
Procedure: Primary objective of the trial was to explore the safety and tolerability of IFX-1 administered over 8 weeks. Secondary objectives of the trial were to assess the pharmacokinetics and pharmacodynamics of IFX-1 as well as to generate preliminary data on the efficacy of IFX-1 on clinical endpoints (e.g., HiSCR, DLQI, VAS for disease status, VAS for pain, HS-PGA, modified Sartorius Score) to generate further hypotheses. The enrolled patients were treated with 800 mg IFX-1 twice in the first week and once a week thereafter for the total 8-week treatment; i.e. IFX-1 was administered in nine intravenous doses of 800 mg IFX-1 on days 1, 4, 8, 15, 22, 29, 36, 43, and 50. All patients were followed up for 12 additional weeks.
• 1. Male or female patients ≥18 years old • 2. Written informed consent • 3. Diagnosis of HS for at least 1 year • 4. HS lesions in at least 2 distinct anatomic areas, one of which is Hurley Stage II or III • 5. Total AN (abscesses and nodules) count ≥3 • 6. Patients with either primary or secondary failure of biological treatment or are not eligible for treatment with other biologicals • NOTE: a primary failure is defined as an at least 12 week treatment with a biological compound without effect and a secondary failure as achieving an initial response after at least 12 week treatment with a biological compound followed by a relapse. • 7. […]

[5] = tested on: HS plasma-induced CD11b upregulation on blood neutrophils; experiment: CD11b upregulation on blood neutrophils induced by HS plasma (human whole blood model); type: cell-based; conditions: HS plasma samples Pat. 088 and Pat. 092, FIG. 6
Source text: To determine the role of C5a in the HS plasma sample on the neutrophil activation, the HS plasma samples with high levels of C5a were chosen and assessed by employing the human whole blood model. […] Recombinant human C5a was used as the positive control, while the plasma from healthy volunteers was chosen as the negative control. […] From these novel results the inventors concluded that blockade of C5a in HS patients is sufficient to achieve a strong suppression on neutrophil activation.

[6] = tested on: recombinant human C5a (rhC5a)-induced CD11b upregulation on blood neutrophils; experiment: CD11b assay in human whole blood stimulated with rhC5a; type: cell-based
Procedure: Human whole blood was stimulated with rhC5a or ZAP. To test the blocking activity of IFX-1 and irrelative control IgG4 on rhC5a, the antibodies were diluted to final Ab/Ag molar ratios of 1:1 and 0.5:1. To test the blocking activity of IFX-1 on eC5a, IFX-1 was diluted to reach final Ab/Ag molar ratios of approximately 4:1/3:1/2:1/1:1/0.5:1. Blood only with buffer served as a non-stimulation control to assess the baseline CD11b expression. Blood with antibody alone was used to determine the effects on CD11b expression of the antibody under non-stimulated condition. The complete mixture (Ab/Ag/blood) was incubated at 37° C. for 20 min to evaluate C5a-induced up-regulation of CD11b. After addition of anti-mouse CD11b:FITC samples were incubated for 30 min on ice to minimize background staining. Granulocytes were gated and mean fluorescence intensity (MFI) of FITC labeled (CD11b expressing) granulocytes was examined by flow cytometer.
Human blood was stimulated with rhC5a or zymosan A, and the complete mixture (Ab/Ag/blood) was incubated at 37° C. for 20 min to stimulate the C5a-induced up-regulation of CD11b. […] After lysis, cells were analyzed using flow cytometer. On the FSC/SSC dot-plot, granulocytes were gated and mean fluorescence intensity (MFI) of FITC labeled (CD11b expressing) granulocytes was examined for the whole sample set. […]

[7] = target: T1, human C5a (Homo sapiens, UniProt P01031); experiment: In vitro blocking of C5a-induced biological effects; type: cell-based; conditions: experimental in vitro settings
T1 sequence (P01031 678-751 limits assumed): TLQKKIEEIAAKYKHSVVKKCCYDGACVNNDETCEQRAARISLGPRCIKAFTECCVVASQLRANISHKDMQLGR

[8] = tested on: cynomolgus monkey; experiment: Nonclinical tests and studies including GLP toxicology studies in cynomolgus monkey; conditions: in vitro/ex vivo tests and in vivo studies incl. GLP toxicology in cynomolgus monkey
[9] = HS patient plasma Pat. 088, test material 100 μM
[10] = HS patient plasma Pat. 088, test material 500 μM
[11] = HS patient plasma Pat. 092, test material 100 μM
[12] = HS patient plasma Pat. 092, test material 500 μM
[13] = HS patient plasma Pat. 088, test material 50 nM
[14] = HS patient plasma Pat. 088, test material 20 μM
[15] = HS patient plasma Pat. 092, test material 50 nM
[16] = HS patient plasma Pat. 092, test material 20 μM
[17] = HS patient plasma Pat. 088, test material 20 nM
[18] = HS patient plasma Pat. 092, test material 20 nM

Cc1ccc(NC(=O)[C@H]2CCCN(C(=O)c3c(C)cccc3F)[C@H]2c2ccc(NC3CCCC3)cc2)cc1C(F)(F)F [Avacopan, (2R,3S)-2-[4-(cyclopentylamino)phenyl]-1-(2-fluoro-6-methylbenzoyl)-N-[4-methyl-3-(trifluoromethyl)phenyl]piperidine-3-carboxamide]
CD11b upregulation induced by HS patient plasma ([1]; 500 μM, FIG. 11): completely blocked | Blocking activity (%) [1, 9]: 77.35% | CD11b (mean MFI) [1, 9]: 5289 | Blocking activity (%) [1, 10]: 104.57% | CD11b (mean MFI) [1, 10]: 3027 | Blocking activity (%) [1, 11]: 79.60% | CD11b (mean MFI) [1, 11]: 5000 | Blocking activity (%) [1, 12]: 104.17% | CD11b (mean MFI) [1, 12]: 3081.5

Ac-Phe-cyclo(Orn-Pro-D-Cha-Trp-Arg) [PMX-53]
CD11b upregulation induced by HS patient plasma samples as well as by rhC5a ([1]; 20 μM, FIG. 9B): completely abrogated | Blocking activity (%) [1, 13]: 55.46% | CD11b (mean MFI) [1, 13]: 4728.5 | Blocking activity (%) [1, 14]: 104.48% | CD11b (mean MFI) [1, 14]: 2027.5 | Blocking activity (%) [1, 15]: 56.69% | CD11b (mean MFI) [1, 15]: 4657.5 | Blocking activity (%) [1, 16]: 108.59% | CD11b (mean MFI) [1, 16]: 1912.5 | CD11b (mean MFI) ([1]; huPP + rhC5a (20 nM), test material 50 nM): 4235.5 | CD11b (mean MFI) ([1]; huPP + rhC5a (20 nM), test material 20 μM): 1851 | CD11b (mean MFI) ([1]; huPP, non-stimulated, test material 50 nM): 2053.5 | CD11b (mean MFI) ([1]; huPP, non-stimulated, test material 20 μM): 2218.5 | Blocking activity (%) ([1]; rhC5a-spiked huPP (20 nM rhC5a), test material 50 nM): 50.30% | Blocking activity (%) ([1]; rhC5a-spiked huPP (20 nM rhC5a), test material 20 μM): 107.88%

B1: IFX-1: chimeric monoclonal IgG4 antibody which specifically binds to the soluble human complement split product C5a (antibody, V domains shown)
VH: QVQLQQSGPQLVRPGTSVKISCKASGYSFTTFWMDWVKQRPGQGLEWIGRIDPSDSESRLDQRFKDRATLTVDKSSSTVYMQLSSPTSEDSAVYYCARGNDGYYGFAYWGQGTLVTVSS
VL: DIVLTQSPASLAVSLGQRATISCKASQSVDYDGDSYMKWYQQKPGQPPKLLIYAASNLQSGIPARFSGSGSGTDFTLNIHPVEEEDAATYYCQQSNEDPYTFGGGTKLEIK
reduction rate of IL-8 generation [2]: up to 54% | safety laboratory parameters, vital signs and ECG parameters [3]: no clinically relevant time or dose-related changes | HiSCR responders ([4]; out of 11 patients treated up to Day 56, 800 mg i.v.): 8 patients | HiSCR response rate ([4]; treatment period of 8 weeks, Day 56, 95% confidence interval 43% to 91%): 72.7% | suppression of CD11b upregulation induced by HS plasma [5]: 100% | blocking of rhC5a-stimulated CD11b up-regulation on human neutrophils ([6]; human whole blood, Ab/Ag molar ratios 1:1 and 0.5:1, FIG. 1): completely blocked | blocking of CD11b up-regulation stimulated by rhC5a ([6]; positive control of the zymosan A whole blood experiment, FIG. 3): 100% | CD11b upregulation by rhC5a and HS patient plasma samples (Pat. 088 and Pat. 092) ([1]; 20 nM, FIG. 10): completely abolish | Blocking activity (%) [1, 17]: 101.74% | CD11b (mean MFI) [1, 17]: 2209 | Blocking activity (%) [1, 18]: 103.70% | CD11b (mean MFI) [1, 18]: 2147 | CD11b (mean MFI) ([1]; huPP + rhC5a (20 nM), test material 20 nM): 2067 | CD11b (mean MFI) ([1]; huPP, non-stimulated, test material 20 nM): 2352 | Blocking activity (%) ([1]; rhC5a-spiked huPP (20 nM rhC5a), test material 20 nM): 104.29% | efficiency of neutralizing the effects of 2 molecules C5a by one antibody [7]: ~100% | toxicological or safety concerns in nonclinical tests and studies [8]: None of the conducted nonclinical tests and studies revealed any toxicological or safety concerns
